Where two headings read alike, the source gives them in different places.
Assays:
NCI-H1373 cells = test: Cell Titer-Glo viability, NCI-H1373; type: cell-based
Method: NCI-H1373 cells were seeded in a white 96-well plate (Corning) at a density of 1,000 cells per well. After 24 hours, cells were treated with PARP7 inhibitors and incubated at 37° C. for 6 days. Cell viability was assessed using CellTiter-Glo (CTG) 2.0 (Promega). After addition of the CTG reagent (following manufacturer protocol), the plate was incubated on an orbital shaker for 15 min (protected from light) at room temperature. Chemiluminescence was measured on a Spectra Max i3 (Molecular Devices), normalized to DMSO-treated wells, and IC50 values were calculated by non-linear regression (three-parameter fit) analysis using Prism 9 (GraphPad).

PARP11 = PARP11 (Homo sapiens (Human), UniProt Q9NR21); test: PASTA biochemical PARP screening assay, PARP11
PARP3 = PARP3 (Homo sapiens (Human), UniProt Q9Y6F1); test: PASTA biochemical PARP screening assay, PARP3
Method: For PARP3, PARP4bc, and PARP16, 200-350 ng of PARP was directly adhered to nickel coated 96-well plates for 60 min at 25° C. in PBR PARP3 was activated by Dnick 5'P as previously described (Langelier, Marie-France et al. Nucleic acids research vol. 42, 12 (2014): 7762-75.). The plate was washed three times with PBST, once with PBS, and once with PBR. Varying concentrations of inhibitor were pre-incubated with NAD^+ and added to the plate (final NAD^+ concentration: 100 μM for PARP3, PARP4bc; 400 μM for PARP16). The plate was incubated at 30° C. for 60 min, then washed three times with PBST before blocking with 5% Milk in PBST. […] The plate was then washed three times with PBST and once with PBS before developing as described previously.

PARP4bc = PARP4bc (Homo sapiens, UniProt Q9UKK3); test: PASTA biochemical PARP screening assay, PARP4bc
PARP15cat = PARP15cat (Homo sapiens (Human), UniProt Q460N3); test: PASTA biochemical PARP screening assay, PARP15cat
IFN-β mRNA = IFN-β mRNA by RT-qPCR in MEFs; type: cell-based, mouse; conditions: 100 nM alone
PARP14wwe = PARP14wwe (Homo sapiens, UniProt Q460N5); test: PASTA biochemical PARP screening assay, PARP14wwe
PARP8 = PARP8 (Homo sapiens (Human), UniProt Q8N3A8); test: PASTA biochemical PARP screening assay, PARP8
AHR target gene CYP1A1 = test: CYP1A1 mRNA (AHR target gene) by RT-qPCR in MEFs; type: cell-based, mouse; conditions: WT MEFs
PARP16 = PARP16 (Homo sapiens (Human), UniProt Q8N5Y8); test: PASTA biochemical PARP screening assay, PARP16
[1] = tested on: NCI-H1373 (human lung adenocarcinoma) cells; test: Cell proliferation assay (CellTiter-Glo), NCI-H1373; type: cell-based; conditions: Homo sapiens, NCI-H1373, 144 h; 6 days, CellTiter-Glo; read-out: NCI-H1373 GI50
[2] = tested on: HARA (human lung squamous cell carcinoma) cells; test: Cell proliferation assay (CellTiter-Glo), HARA; type: cell-based; conditions: Homo sapiens, 144 h; 6 days, CellTiter-Glo; read-out: HARA GI50
[3] = tested on: CT26 (mouse colon adenocarcinoma) cells; test: Cell proliferation assay (CellTiter-Glo), CT26; type: cell-based; conditions: Mus musculus, CT26, 144 h, 6 days
PARP2 [4] = target: T1, PARP2 (Homo sapiens (Human), UniProt Q9UGN5); test: PARP2 biochemical assay; conditions: read-out: PARP2 IC50
GFP-PARP7 = GFP-PARP7 (Homo sapiens (Human), UniProt Q7Z3E1); test: PARP7 MARylation in GFP-PARP7 expressing HEK 293T cells (western blot); type: cell-based; conditions: read-out: EC50, decrease in PARP7 MARylation
PARP6 = PARP6 (Homo sapiens (Human), UniProt Q2NL67); test: PASTA biochemical PARP screening assay, PARP6
PARP10 = PARP10 (Homo sapiens (Human), UniProt Q53GL7); test: PASTA biochemical PARP screening assay, PARP10
PARP12cat = PARP12cat (Homo sapiens (Human), UniProt Q9H0J9); test: PASTA biochemical PARP screening assay, PARP12cat
[5] = tested on: AHR ligand-mediated gene transcription; test: CYP1A1 mRNA by qPCR in mouse embryonic fibroblasts; type: cell-based; conditions: MEFs, with or without AHR agonist TCDD
Method: FIG. 2A provides CYP1A1 mRNA levels assessed by qPCR after treatment of wild type (WT) MEFs with increasing concentrations of Example 10 in the presence (gray bars) or absence (black bars) of the AHR agonist TCDD (1 nM). FIG. 2B provides the same as in FIG. 2A except with PARP7^−/− MEFs. FIG. 2C provides CYP1A1 mRNA levels assessed by qPCR after treatment of wild type (WT) MEFs with increasing concentrations of TCDD in the presence (gray bars) or absence (black bars) of 100 nM Example 10. FIG. 2D provides the same as in FIG. 2C, except with PARP7−/− MEFs.

PARP1 = PARP1 (Homo sapiens (Human), UniProt P09874); test: PASTA biochemical PARP screening assay, PARP1
GST-tagged PARP7 = GST-tagged PARP7 (Homo sapiens (Human), UniProt Q7Z3E1); test: PASTA biochemical PARP screening assay, PARP7
Method: GST-tagged PARP7 was expressed and purified as previously described (Hutin et al., 2018). Proteins were quantified by an in-gel standard curve of Bovine Serum Albumin (Bio-Rad). For PARP7, 250 ng of PARP7 was adhered to glutathione coated 96-well plates (Thermo Scientific) in PBR for 60 min at RT. […] After washing, varying concentrations of each inhibitor was pre-incubated with 20 μM (2×) 6-a-NAD^+. The solution was added to the plate, diluted to 1× in PBR, and incubated at 30° C. for 60 min. […] The plate was subsequently washed three times in PBST and once in PBS before incubation with Strep-HRP (300 ng/μl BSA, 0.05 ng/μl Strep-HRP (Jackson ImmunoResearch), 1×PBS) for 30 min at RT. The plate was washed three time in PBST and once in PBS before development with QuantaRed Enhanced Chemifluorescent HRP Substrate as described previously.

PARP2 [6] = target: T1, PARP2; test: PASTA biochemical PARP screening assay, PARP2

Chain of GST-tagged PARP7 (Q7Z3E1 whole entry): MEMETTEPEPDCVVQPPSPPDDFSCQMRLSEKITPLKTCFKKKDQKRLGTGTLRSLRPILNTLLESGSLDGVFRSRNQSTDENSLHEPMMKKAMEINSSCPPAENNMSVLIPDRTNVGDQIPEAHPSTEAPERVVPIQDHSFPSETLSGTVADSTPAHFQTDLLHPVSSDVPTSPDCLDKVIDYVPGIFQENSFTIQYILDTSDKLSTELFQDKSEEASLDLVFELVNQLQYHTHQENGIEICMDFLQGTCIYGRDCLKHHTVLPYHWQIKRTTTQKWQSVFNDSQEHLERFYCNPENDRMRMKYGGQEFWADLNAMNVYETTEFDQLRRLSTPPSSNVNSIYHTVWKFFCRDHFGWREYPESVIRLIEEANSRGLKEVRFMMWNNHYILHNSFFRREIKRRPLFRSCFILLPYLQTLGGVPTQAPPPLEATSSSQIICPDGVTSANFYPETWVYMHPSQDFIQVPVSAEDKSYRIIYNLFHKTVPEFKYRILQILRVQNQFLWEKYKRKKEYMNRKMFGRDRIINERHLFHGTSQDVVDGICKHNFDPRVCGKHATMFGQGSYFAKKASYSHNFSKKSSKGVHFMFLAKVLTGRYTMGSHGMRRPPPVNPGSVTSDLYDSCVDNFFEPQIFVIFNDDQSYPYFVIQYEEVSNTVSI
T1 sequence (Q9UGN5 whole entry): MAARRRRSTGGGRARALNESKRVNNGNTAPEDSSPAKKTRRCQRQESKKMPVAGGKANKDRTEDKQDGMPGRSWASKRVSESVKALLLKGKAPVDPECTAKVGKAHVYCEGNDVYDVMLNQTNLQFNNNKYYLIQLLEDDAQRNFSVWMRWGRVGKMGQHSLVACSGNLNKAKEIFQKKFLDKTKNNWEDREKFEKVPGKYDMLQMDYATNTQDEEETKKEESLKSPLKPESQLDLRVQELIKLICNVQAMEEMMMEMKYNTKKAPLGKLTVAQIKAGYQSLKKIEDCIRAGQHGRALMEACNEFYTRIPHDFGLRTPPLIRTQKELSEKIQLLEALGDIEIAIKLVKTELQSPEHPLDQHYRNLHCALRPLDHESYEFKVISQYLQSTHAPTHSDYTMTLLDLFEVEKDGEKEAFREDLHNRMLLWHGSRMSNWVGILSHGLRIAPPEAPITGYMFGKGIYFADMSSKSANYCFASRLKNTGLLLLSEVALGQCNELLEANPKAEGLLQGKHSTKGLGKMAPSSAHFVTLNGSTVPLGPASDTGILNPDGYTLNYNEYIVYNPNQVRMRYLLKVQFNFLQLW
Chain of PARP1 (P09874 whole entry, species assumed): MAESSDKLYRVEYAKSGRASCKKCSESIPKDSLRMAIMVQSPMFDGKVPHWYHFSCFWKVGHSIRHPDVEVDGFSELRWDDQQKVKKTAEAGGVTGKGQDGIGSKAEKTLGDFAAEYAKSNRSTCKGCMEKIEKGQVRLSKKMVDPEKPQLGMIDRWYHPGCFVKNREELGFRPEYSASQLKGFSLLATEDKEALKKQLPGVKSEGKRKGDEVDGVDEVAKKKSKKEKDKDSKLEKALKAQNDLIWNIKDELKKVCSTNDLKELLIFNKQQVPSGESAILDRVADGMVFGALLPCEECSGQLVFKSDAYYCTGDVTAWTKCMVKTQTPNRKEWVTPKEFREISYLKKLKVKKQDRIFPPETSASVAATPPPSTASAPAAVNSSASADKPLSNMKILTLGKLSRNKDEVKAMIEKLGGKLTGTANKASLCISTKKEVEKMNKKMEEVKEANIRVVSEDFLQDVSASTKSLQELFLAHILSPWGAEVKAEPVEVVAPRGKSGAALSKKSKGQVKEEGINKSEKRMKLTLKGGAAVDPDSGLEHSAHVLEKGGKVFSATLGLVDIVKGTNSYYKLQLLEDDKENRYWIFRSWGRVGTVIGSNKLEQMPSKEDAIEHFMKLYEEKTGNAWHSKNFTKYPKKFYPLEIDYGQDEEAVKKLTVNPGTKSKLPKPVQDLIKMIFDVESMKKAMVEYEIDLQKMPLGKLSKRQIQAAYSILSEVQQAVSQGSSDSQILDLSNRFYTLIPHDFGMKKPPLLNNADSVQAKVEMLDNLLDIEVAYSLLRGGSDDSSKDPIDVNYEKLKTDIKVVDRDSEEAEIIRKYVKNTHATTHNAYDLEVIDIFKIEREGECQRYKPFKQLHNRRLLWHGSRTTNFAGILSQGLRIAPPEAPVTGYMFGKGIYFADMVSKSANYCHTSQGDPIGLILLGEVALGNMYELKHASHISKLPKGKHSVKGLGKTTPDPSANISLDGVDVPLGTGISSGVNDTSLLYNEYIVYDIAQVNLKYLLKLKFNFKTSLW
Chain of GFP-PARP7 (Q7Z3E1 whole entry): as the sequence (Q7Z3E1 whole entry) above
Chain of PARP10 (Q53GL7 whole entry, species assumed): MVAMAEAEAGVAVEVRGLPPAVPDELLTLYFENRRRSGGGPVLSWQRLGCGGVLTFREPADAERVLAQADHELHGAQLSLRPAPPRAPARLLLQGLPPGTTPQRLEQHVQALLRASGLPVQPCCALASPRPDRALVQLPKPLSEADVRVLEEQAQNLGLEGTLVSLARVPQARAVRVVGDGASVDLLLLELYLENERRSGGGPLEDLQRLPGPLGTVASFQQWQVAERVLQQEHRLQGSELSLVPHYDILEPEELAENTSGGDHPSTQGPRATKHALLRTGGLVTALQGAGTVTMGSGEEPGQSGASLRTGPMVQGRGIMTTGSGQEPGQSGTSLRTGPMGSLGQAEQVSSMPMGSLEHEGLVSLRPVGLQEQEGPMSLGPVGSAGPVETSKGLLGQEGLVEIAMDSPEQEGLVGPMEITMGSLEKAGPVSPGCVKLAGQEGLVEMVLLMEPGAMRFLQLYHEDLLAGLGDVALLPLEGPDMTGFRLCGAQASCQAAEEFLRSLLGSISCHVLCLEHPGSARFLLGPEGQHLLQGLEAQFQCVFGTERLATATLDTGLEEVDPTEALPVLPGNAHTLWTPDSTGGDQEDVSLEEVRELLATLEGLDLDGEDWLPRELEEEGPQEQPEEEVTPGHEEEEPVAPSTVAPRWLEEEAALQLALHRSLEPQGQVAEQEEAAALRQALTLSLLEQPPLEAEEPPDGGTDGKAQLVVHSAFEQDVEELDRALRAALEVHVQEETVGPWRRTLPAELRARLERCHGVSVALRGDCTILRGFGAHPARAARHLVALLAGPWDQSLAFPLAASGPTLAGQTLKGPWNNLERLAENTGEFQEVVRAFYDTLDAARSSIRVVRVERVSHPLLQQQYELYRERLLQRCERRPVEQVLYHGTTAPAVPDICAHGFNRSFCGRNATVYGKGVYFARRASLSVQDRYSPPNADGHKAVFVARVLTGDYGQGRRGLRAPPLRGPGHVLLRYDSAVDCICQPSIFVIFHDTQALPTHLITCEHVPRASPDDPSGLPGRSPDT
Chain of PARP12cat (Q9H0J9 484-698): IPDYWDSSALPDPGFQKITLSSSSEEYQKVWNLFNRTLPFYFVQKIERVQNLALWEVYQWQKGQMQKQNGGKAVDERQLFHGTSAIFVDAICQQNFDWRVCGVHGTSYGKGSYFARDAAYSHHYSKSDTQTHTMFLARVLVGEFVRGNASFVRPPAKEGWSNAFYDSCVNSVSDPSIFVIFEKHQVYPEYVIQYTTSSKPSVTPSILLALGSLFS
Chain of PARP8 (Q8N3A8 whole entry, species assumed): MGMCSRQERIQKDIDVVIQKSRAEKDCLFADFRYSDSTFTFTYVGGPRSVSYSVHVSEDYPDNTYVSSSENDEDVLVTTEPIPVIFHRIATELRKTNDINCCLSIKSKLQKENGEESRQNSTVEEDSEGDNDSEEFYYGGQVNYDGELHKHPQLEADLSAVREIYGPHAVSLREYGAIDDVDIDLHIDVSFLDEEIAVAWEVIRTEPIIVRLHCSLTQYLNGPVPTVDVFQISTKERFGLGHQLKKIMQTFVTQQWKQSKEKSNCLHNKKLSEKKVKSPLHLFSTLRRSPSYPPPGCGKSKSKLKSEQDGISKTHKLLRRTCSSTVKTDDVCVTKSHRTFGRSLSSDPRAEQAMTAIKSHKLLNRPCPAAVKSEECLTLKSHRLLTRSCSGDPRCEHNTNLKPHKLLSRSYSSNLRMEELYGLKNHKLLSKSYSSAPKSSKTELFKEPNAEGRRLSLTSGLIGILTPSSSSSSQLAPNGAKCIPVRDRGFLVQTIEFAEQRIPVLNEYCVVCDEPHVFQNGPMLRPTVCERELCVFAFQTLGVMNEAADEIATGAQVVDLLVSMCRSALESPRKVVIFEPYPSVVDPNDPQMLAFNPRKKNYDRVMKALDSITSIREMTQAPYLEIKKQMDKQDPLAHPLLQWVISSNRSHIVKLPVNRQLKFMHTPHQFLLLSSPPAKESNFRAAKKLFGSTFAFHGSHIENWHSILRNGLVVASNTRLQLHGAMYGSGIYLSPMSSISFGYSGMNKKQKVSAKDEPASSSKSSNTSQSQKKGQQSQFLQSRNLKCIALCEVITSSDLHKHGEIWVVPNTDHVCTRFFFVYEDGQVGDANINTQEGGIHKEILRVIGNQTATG
Chain of PARP6 (Q2NL67 whole entry, species assumed): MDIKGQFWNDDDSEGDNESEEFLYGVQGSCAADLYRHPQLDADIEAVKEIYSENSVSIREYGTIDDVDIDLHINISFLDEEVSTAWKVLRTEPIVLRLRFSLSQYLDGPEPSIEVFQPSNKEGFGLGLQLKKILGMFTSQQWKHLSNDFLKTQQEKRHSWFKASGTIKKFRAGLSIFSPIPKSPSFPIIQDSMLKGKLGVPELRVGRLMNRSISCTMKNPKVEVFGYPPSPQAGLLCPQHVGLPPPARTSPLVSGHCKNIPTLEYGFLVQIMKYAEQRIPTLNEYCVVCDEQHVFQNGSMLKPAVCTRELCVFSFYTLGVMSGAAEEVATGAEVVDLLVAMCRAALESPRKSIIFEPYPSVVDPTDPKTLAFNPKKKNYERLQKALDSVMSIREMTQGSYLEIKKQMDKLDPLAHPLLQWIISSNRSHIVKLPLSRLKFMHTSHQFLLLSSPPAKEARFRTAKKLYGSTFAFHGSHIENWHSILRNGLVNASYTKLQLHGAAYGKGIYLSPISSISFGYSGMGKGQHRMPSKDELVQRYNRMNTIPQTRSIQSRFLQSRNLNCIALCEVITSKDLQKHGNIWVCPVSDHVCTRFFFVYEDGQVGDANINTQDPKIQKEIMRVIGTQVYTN

For `CC#Cc1ccc2c(=O)[nH]nc(Cc3ccc(F)c(C(=O)N4CCN(c5ccc(C#N)cn5)CC4)c3)c2c1` [Example 10, 6-(4-(2-Fluoro-5-((4-oxo-7-(prop-1-ynyl)-3,4-dihydrophthalazin-1-yl)methyl)benzoyl)piperazin-1-yl)nicotinonitrile], the “less potent than RBN-2397 on NCI-H1373” value (NCI-H1373 cells) was about 6 fold, the EC50 (NCI-H1373 cells; Homo sapiens, NCI-H1373, 144 h, 6 days, CellTiter-Glo) was 104 nM and the IC50 (PARP11) was 134 nM. It also gave an IC50 (PARP3) of over 3000 nM, an IC50 (PARP4bc) of over 3000 nM and an IC50 (PARP15cat) of 770 nM. The “increase in IFN-β mRNA” value (IFN-β mRNA) was 3 fold, the IC50 (PARP14wwe) was 1040 nM and the IC50 (PARP8) was over 3000 nM. The “CYP1A1 mRNA levels” value (AHR target gene CYP1A1; in the absence of TCDD) was “had no effect on CYP1A1 mRNA levels”, the “CYP1A1 mRNA levels” value (AHR target gene CYP1A1; in the presence of 1 nM TCDD) was “dramatically increased CYP1A1 mRNA levels” and the IC50 (PARP16) was 1060 nM. For the same molecule, the GI50 [1] was under 100 nM, the GI50 [2] was 1000 to 5000 nM and the GI50 [3] was over 5000 nM. It also gave an IC50 (PARP2 [4]) of 100 to 500 nM, an EC50 (GFP-PARP7) of 8 nM and an IC50 (PARP6) of 775 nM. The IC50 (PARP10) was 179 nM, the IC50 (PARP12cat) was 762 nM and the “AHR ligand-mediated gene transcription (CYP1A1 mRNA)” value [5] was “derepresses AHR ligand-mediated gene transcription”. For the same molecule, the IC50 (PARP1; read-out: IC50 PARP1) was over 3000 nM, the IC50 (PARP1; read-out: does not inhibit PARP1 up to) was over 3000 nM and the IC50 (GST-tagged PARP7) was 13.7 nM. For the same molecule, the “selectivity for PARP7 over PARP2” value (GST-tagged PARP7) was about 75 fold, the “selectivity for PARP7 over PARP10 and PARP11” value (GST-tagged PARP7) was about 10 fold and the “selectivity for PARP7 over most PARP family members beyond PARP1 and PARP2” value (GST-tagged PARP7) was over 50 fold. The IC50 (PARP2 [6]) was 1020 nM.
